Eight compounds from patent US20230295156A1, “CRYSTALLINE FORMS OF 4-[(7-CHLORO-2-METHOXYBENZO[B][1,5]NAPHTHYRIDIN-10-YL)AMINO]-2,6-BIS(PYRROLIDIN-1-YLMETHYL)PHENOL AND SALTS THEREOF” (Merck Patent GmbH, priority 2020, published 2023) can be followed below.

Each structure is given as a SMILES string. “Also recorded” adds a separate entry of the source. Bounds are passed on as bounds.

Data set [1] can be described thus: Miniaturized non-sink dissolution in FaSSIF pH 6.5. The settings on record: for Dissolution levels in FaSSIF pH 6.5: 37° C.; for Dissolution level in FaSSIF: FaSSIF pH 6.5, 37° C. Type of data set: physicochemical. As for the experimental part: Approx. 10-20 mg of solid sample were weighed into glass vials. 7 ml of respective FaSSIF (pH 6.5) medium (prewarmed to 37° C.) were added and the suspension was shaken at 450 rpm at 37° C. After 5 min, 15 min, 60 min, and 120 min, 1 ml suspension was withdrawn and filtered through a 0.2 µm syringe filter. Clear filtrate was analysed by HPLC after suitable dilution to measure the amount of API dissolved. To get non-sink conditions 1 ml pre warmed FaSSiF solution was added after sample was withdrawn.
The clear solution was collected in HPLC vials, the filtrate further diluted if necessary and finally HPLC analysis was carried out.
HPLC method for ph-dependent solubility & miniaturised non-sink dissolution: • Column: Chromolith RP-18e 100 - 3 mm • Solvent A: water/formic acid (999:1; v/v) • Solvent B: acetonitrile/formic acid (999:1; v/v) • Injection volume: 5 µL • Column temperature: 37° C. • Wavelength detector: 218 nm

Data set [2] is described as follows: Water Vapour Sorption isotherm (DVS), hygroscopicity acc. to Ph. Eur. In kind it is physicochemical. The settings on record: for Hygroscopicity classification acc. to Ph. Eur. criteria (section 5.11.): based on water uptake difference 40-80% rh; for Water uptake level (Water Vapour Sorption): isotherm 25° C. As for the experimental part:
As used herein, unless stated otherwise, Water Vapour Sorption isotherm measurements are carried out on a DVS-1 or a DVS-Intrinsic system from SMS.

Setting [3] is: relative humidity range 40-80% rh.

On to `COc1ccc2nc3cc(Cl)ccc3c(Nc3cc(CN4CCCC4)c(O)c(CN4CCCC4)c3)c2n1` [Tetraphosphate form, 4-[(7-chloro-2-methoxybenzo[b][1,5]naphthyridin-10-yl)amino]-2,6-bis(pyrrolidin-1-ylmethyl)phenol tetraphosphate, reference compound], for which the “Dissolution levels in FaSSIF pH 6.5” value in data set [1] (5 min, listed as Pyronaridine (tetraphosphate salt, prior art form)) is reported as 501.4 µg/mL; in data set [1] (15 min, listed as Pyronaridine (tetraphosphate salt, prior art form)), 501.9 µg/mL; in data set [1] (60 min, listed as Pyronaridine (tetraphosphate salt, prior art form)), 501.3 µg/mL; in data set [1] (120 min, listed as Pyronaridine (tetraphosphate salt, prior art form)), 491.3 µg/mL. Also, the entries for the “Dissolution level in FaSSIF” value in data set [1] (after 15 min), in data set [1] (after 60 min) and in data set [1] (after 120 min) were “approx. 0.50 mg/mL”, “approx. 0.50 mg/mL” and “approx. 0.49 mg/mL”, respectively. The “Hygroscopicity classification acc. to Ph. Eur. criteria (section 5.11.)” value in data set [2] and in data set [2] (listed as pyronaridine) was “hygroscopic” throughout. The “Water uptake level (Water Vapour Sorption)” value (shortened to “Water uptake level”) in data set [2] (setting [3]) is on record as greater than 4.9 wt%.
As to `COc1ccc2nc3cc(Cl)ccc3c(Nc3cc(CN4CCCC4)c(O)c(CN4CCCC4)c3)c2n1` [Form V, 4-[(7-chloro-2-methoxybenzo[b][1,5]naphthyridin-10-yl)amino]-2,6-bis(pyrrolidin-1-ylmethyl)phenol], the “Dissolution levels in FaSSIF pH 6.5” value in data set [1] (5 min, listed as Napsylate salt Form V) was 95.2 µg/mL; in data set [1] (15 min, listed as Napsylate salt Form V) it was 171.1 µg/mL; in data set [1] (60 min, listed as Napsylate salt Form V) it was 564.1 µg/mL; in data set [1] (120 min, listed as Napsylate salt Form V) it was 817.6 µg/mL. The “Dissolution level in FaSSIF” value in data set [1] (after 15 min) was “approx. 0.17 mg/mL”; in data set [1] (after 60 min) it was “approx. 0.56 mg/mL”; in data set [1] (after 120 min), “approx. 0.82 mg/mL”. The “Hygroscopicity classification acc. to Ph. Eur. criteria (section 5.11.)” value in data set [2] is given as “slightly hygroscopic; also recorded: non-hygroscopic”. For the same compound, the “Water uptake level” value in data set [2] (setting [3]) was 0.6 wt%. Besides, the “Tendency to undergo hydrate formation upon exposure to elevated RH levels” value (shortened to “Tendency”) in data set [2] (up to 90% RH) is “no tendency to undergo hydrate formation”.
Turning to `COc1ccc2nc3cc(Cl)ccc3c(Nc3cc(CN4CCCC4)c(O)c(CN4CCCC4)c3)c2n1` [Form II, 4-[(7-chloro-2-methoxybenzo[b][1,5]naphthyridin-10-yl)amino]-2,6-bis(pyrrolidin-1-ylmethyl)phenol], the “Dissolution levels in FaSSIF pH 6.5” value is 432.8 µg/mL in data set [1] (5 min, listed as Besylate salt Form II); 447.0 µg/mL in data set [1] (15 min, listed as Besylate salt Form II); 440.1 µg/mL in data set [1] (60 min, listed as Besylate salt Form II); 444.5 µg/mL in data set [1] (120 min, listed as Besylate salt Form II). Further, the “Dissolution level in FaSSIF” value is “approx. 0.45 mg/mL” in data set [1] (after 15 min), “approx. 0.44 mg/mL” in data set [1] (after 60 min) and “approx. 0.44 mg/mL” in data set [1] (after 120 min). Further, the “Hygroscopicity classification acc. to Ph. Eur. criteria (section 5.11.)” value in data set [2] was “slightly hygroscopic”. Further, in data set [2] (relative humidity range 40-90% rh), the “Water uptake level” value was 1.4 wt%.
On to `COc1ccc2nc3cc(Cl)ccc3c(Nc3cc(CN4CCCC4)c(O)c(CN4CCCC4)c3)c2n1` [Form VI, 4-[(7-chloro-2-methoxybenzo[b][1,5]naphthyridin-10-yl)amino]-2,6-bis(pyrrolidin-1-ylmethyl)phenol], for which the “Hygroscopicity classification acc. to Ph. Eur. criteria (section 5.11.)” value in data set [2] is on record as “non-hygroscopic”. The “Water uptake level” value in data set [2] (setting [3]) is reported as less than 0.1 wt%. The “Tendency” value in data set [2] (up to 98% RH) is recorded as “no tendency to undergo hydrate formation”.
Take `COc1ccc2nc3cc(Cl)ccc3c(Nc3cc(CN4CCCC4)c(O)c(CN4CCCC4)c3)c2n1` [Form I, 4-[(7-chloro-2-methoxybenzo[b][1,5]naphthyridin-10-yl)amino]-2,6-bis(pyrrolidin-1-ylmethyl)phenol]: the “Dissolution levels in FaSSIF pH 6.5” value is 547.9 µg/mL in data set [1] (5 min, listed as Tosylate salt Form I); 557.9 µg/mL in data set [1] (15 min, listed as Tosylate salt Form I); 552.8 µg/mL in data set [1] (60 min, listed as Tosylate salt Form I); 537.7 µg/mL in data set [1] (120 min, listed as Tosylate salt Form I). Further, the “Dissolution level in FaSSIF” value in data set [1] (after 15 min) is reported as “approx. 0.56 mg/mL”; in data set [1] (after 60 min) it was “approx. 0.55 mg/mL”; in data set [1] (after 120 min), “approx. 0.54 mg/mL”. Also, the “Hygroscopicity classification acc. to Ph. Eur. criteria (section 5.11.)” value in data set [2] is reported as “hygroscopic”. In addition, in data set [2] (setting [3]), the “Water uptake level” value was determined as 2.4 wt%.
As to `COc1ccc2nc3cc(Cl)ccc3c(Nc3cc(CN4CCCC4)c(O)c(CN4CCCC4)c3)c2n1` [Form IV, 4-[(7-chloro-2-methoxybenzo[b][1,5]naphthyridin-10-yl)amino]-2,6-bis(pyrrolidin-1-ylmethyl)phenol], the “Dissolution levels in FaSSIF pH 6.5” value in data set [1] (5 min, listed as Napsylate salt Form IV) is listed as 116.6 µg/mL; in data set [1] (15 min, listed as Napsylate salt Form IV) it was 209.0 µg/mL; in data set [1] (60 min, listed as Napsylate salt Form IV), 488.8 µg/mL; in data set [1] (120 min, listed as Napsylate salt Form IV), 630.0 µg/mL. For the same compound, the “Dissolution level in FaSSIF” value in data set [1] (after 15 min) is “approx. 0.17 mg/mL”; in data set [1] (after 60 min), “approx. 0.56 mg/mL”; in data set [1] (after 120 min), “approx. 0.82 mg/mL”. The “Hygroscopicity classification acc. to Ph. Eur. criteria (section 5.11.)” value in data set [2] is given as “slightly hygroscopic”. Further, in data set [2] (setting [3]), the “Water uptake level” value is reported as 0.6 wt%. In data set [2] (up to 90% RH), the “Tendency” value was “no tendency to undergo hydrate formation”.
On to `COc1ccc2nc3cc(Cl)ccc3c(Nc3cc(CN4CCCC4)c(O)c(CN4CCCC4)c3)c2n1` [Form VII, 4-[(7-chloro-2-methoxybenzo[b][1,5]naphthyridin-10-yl)amino]-2,6-bis(pyrrolidin-1-ylmethyl)phenol], for which the “Hygroscopicity classification acc. to Ph. Eur. criteria (section 5.11.)” value in data set [2] is “non-hygroscopic; also recorded: slightly hygroscopic”. In data set [2] (setting [3]), the “Water uptake level” value is listed as less than 0.1 wt%. Besides, the “Tendency” value in data set [2] (up to 98% RH) is “no tendency to undergo hydrate formation”.
For the compound `COc1ccc2nc3cc(Cl)ccc3c(Nc3cc(CN4CCCC4)c(O)c(CN4CCCC4)c3)c2n1` [Form III, 4-[(7-chloro-2-methoxybenzo[b][1,5]naphthyridin-10-yl)amino]-2,6-bis(pyrrolidin-1-ylmethyl)phenol], the “Dissolution levels in FaSSIF pH 6.5” value in data set [1] (5 min, listed as Edisylate salt Form III) is on record as 406.7 µg/mL; in data set [1] (15 min, listed as Edisylate salt Form III) it was 462.7 µg/mL; in data set [1] (60 min, listed as Edisylate salt Form III), 483.3 µg/mL; in data set [1] (120 min, listed as Edisylate salt Form III), 469.7 µg/mL. The “Dissolution level in FaSSIF” value in data set [1] (after 15 min) is “approx. 0.46 mg/mL”; in data set [1] (after 60 min) it was “approx. 0.48 mg/mL”; in data set [1] (after 120 min) it was “approx. 0.47 mg/mL”. Moreover, in data set [2], the “Hygroscopicity classification acc. to Ph. Eur. criteria (section 5.11.)” value is given as “slightly hygroscopic”. Moreover, the “Water uptake level” value in data set [2] (setting [3]) came to 1.5 wt%. Further, the “Tendency” value in data set [2] (up to 90% RH) is on record as “no tendency to undergo hydrate formation”.
